Patent US20100136537A1, “PHOTORECEPTOR PRECURSOR CELLS” (THE REGENTS OF THE UNIVERSITY OF MICHIGAN, priority 2006, published 2010)
Blank lines part the entries; values can stand above or below the molecule they belong to.

How the values were obtained:
[1] = molecular target: T1, mGluR8 (Mus musculus, UniProt P47743); assay: Calcium imaging (Fura Red) of whole-mount transplanted retinas, mGluR8 stimulation; format: cell-based; details: for changes in intracellular calcium ([Ca2+]i) on agonist application: recipient and Nrl.gfp-positive integrated rod cells, DCPG 20 μM in bath
T1 construct: from tissue; host or cells: whole-mount mouse neural retina; integrated Nrl.gfp-positive donor rods and recipient photoreceptors
Description: (§1) Calcium Imaging. Retinas transplanted with Nrl.gfp^+/+ P1 cells were dissected free of all surrounding tissue. Whole-mount neural retinas were loaded with Fura Red-AM (15 μM, Molecular Probes) and the dispersant Cremophor-EL (0.03%, Sigma) for 1.5 hrs at 36° C. and then de-esterified in fresh DMEM-F12 (without phenol red) for 30 mins at 36° C. Retinas were transferred to the stage of an inverted microscope (SP2, Leica, UK) and held flat under a nylon-strung platinum wire ‘harp’. XY images were taken through the cell bodies in the inner region of the ONL, nearest the outer plexiform layer, where rod (as opposed to cone, which lie at the outer edge of the ONL) photoreceptor nuclei reside. Images were acquired at 3 sec intervals and analysed off-line. Cells were selected at random and the mean fluorescence of individual cells was calculated and normalised against the fluorescence at time 0s. Drugs were applied by micro-pipette injection into the bathing solution.
(§2) Drugs. DCPG ((S)-3,4-dicarboxyphenylglycine) (20 μM; final concentration in bath), CPPG ((RS)-alpha-cyclopropyl-4-phosphonophenylglycine) (100 μM) and NMDA (N-methyl-D-aspartate) (200 μM) were supplied by Tocris (UK).

[2] = system: NRL; assay: NRL expression in serum-starved Y79 cells (immunoblot, Northern blot); format: cell-based, human; details: for NRL expression (immunoblot): 24 h incubation
Description: Cell Culture. Y79 human retinoblastoma cells (ATCC HTB 18) and HEK293 (ATCC CRL-1573) were maintained in RPMI 1640 and Dulbecco's modified Eagle's medium, respectively, under standard conditions with 15% (v/v) fetal bovine serum (FBS), penicillin G (100 units/ml), and streptomycin (100 μg/ml) at 37° C. and 5% CO2. For serum starvation and RA treatment experiments, Y79 cells (5×10^4) were cultured in the presence or absence of the serum (same batch of serum was used in all the experiments), at RA, 9-cis-RA, cycloheximide (CHX), and 4-(E-2-(5,6,7,8-tetrahydro-5,5,8,8-tetramethyl-2-naphthalenl)-1-propenyl) benzoic acid (TTNPB) at indicated concentrations. Me2SO or ethanol was added to Y79 cells in lieu of the soluble factors as negative control.
For protein synthesis inhibition experiments, Y79 cells were serum-starved for 24 h, and then simultaneously treated with RA and CHX for 8 or 24 h. NRL expression was analyzed by immunoblotting. In another set of experiments, serum-starved Y79 cells were first incubated with RA alone for 8 or 24 h and then CHX was added. Cell extracts were then analyzed 24 h later for examining NRL expression by immunoblotting.
Protein Expression Analysis.

[3] = system: NMDA receptor; assay: Calcium imaging (Fura Red) of whole-mount transplanted retinas, NMDA receptor agonist; format: cell-based, mouse; details: NMDA 200 μM; photoreceptors
Description: as §1, §2

[4] = molecular target: ΔCEP290 (truncated CEP290 of the rd16 mouse, in-frame deletion of amino acid residues 1599-1897) (mouse) (UniProt Q6A078); assay: co-immunoprecipitation with ORF15^CP antibody from rd16 vs WT retinal extract, immunoblot for CEP290
[5] = molecular target: T2, CEP290 (wild-type mouse centrosomal protein CEP290, endogenous, retina) (mouse, UniProt Q6A078 1-2472); assay: co-immunoprecipitation from retinal extracts, immunoblot
T2 construct: range 1-2472; Endogenous protein in retinal extracts; alternatively spliced lower-mass isoforms are also mentioned; also called WT protein; full-length CEP290
T2 sequence (Q6A078 whole entry, canonical isoform): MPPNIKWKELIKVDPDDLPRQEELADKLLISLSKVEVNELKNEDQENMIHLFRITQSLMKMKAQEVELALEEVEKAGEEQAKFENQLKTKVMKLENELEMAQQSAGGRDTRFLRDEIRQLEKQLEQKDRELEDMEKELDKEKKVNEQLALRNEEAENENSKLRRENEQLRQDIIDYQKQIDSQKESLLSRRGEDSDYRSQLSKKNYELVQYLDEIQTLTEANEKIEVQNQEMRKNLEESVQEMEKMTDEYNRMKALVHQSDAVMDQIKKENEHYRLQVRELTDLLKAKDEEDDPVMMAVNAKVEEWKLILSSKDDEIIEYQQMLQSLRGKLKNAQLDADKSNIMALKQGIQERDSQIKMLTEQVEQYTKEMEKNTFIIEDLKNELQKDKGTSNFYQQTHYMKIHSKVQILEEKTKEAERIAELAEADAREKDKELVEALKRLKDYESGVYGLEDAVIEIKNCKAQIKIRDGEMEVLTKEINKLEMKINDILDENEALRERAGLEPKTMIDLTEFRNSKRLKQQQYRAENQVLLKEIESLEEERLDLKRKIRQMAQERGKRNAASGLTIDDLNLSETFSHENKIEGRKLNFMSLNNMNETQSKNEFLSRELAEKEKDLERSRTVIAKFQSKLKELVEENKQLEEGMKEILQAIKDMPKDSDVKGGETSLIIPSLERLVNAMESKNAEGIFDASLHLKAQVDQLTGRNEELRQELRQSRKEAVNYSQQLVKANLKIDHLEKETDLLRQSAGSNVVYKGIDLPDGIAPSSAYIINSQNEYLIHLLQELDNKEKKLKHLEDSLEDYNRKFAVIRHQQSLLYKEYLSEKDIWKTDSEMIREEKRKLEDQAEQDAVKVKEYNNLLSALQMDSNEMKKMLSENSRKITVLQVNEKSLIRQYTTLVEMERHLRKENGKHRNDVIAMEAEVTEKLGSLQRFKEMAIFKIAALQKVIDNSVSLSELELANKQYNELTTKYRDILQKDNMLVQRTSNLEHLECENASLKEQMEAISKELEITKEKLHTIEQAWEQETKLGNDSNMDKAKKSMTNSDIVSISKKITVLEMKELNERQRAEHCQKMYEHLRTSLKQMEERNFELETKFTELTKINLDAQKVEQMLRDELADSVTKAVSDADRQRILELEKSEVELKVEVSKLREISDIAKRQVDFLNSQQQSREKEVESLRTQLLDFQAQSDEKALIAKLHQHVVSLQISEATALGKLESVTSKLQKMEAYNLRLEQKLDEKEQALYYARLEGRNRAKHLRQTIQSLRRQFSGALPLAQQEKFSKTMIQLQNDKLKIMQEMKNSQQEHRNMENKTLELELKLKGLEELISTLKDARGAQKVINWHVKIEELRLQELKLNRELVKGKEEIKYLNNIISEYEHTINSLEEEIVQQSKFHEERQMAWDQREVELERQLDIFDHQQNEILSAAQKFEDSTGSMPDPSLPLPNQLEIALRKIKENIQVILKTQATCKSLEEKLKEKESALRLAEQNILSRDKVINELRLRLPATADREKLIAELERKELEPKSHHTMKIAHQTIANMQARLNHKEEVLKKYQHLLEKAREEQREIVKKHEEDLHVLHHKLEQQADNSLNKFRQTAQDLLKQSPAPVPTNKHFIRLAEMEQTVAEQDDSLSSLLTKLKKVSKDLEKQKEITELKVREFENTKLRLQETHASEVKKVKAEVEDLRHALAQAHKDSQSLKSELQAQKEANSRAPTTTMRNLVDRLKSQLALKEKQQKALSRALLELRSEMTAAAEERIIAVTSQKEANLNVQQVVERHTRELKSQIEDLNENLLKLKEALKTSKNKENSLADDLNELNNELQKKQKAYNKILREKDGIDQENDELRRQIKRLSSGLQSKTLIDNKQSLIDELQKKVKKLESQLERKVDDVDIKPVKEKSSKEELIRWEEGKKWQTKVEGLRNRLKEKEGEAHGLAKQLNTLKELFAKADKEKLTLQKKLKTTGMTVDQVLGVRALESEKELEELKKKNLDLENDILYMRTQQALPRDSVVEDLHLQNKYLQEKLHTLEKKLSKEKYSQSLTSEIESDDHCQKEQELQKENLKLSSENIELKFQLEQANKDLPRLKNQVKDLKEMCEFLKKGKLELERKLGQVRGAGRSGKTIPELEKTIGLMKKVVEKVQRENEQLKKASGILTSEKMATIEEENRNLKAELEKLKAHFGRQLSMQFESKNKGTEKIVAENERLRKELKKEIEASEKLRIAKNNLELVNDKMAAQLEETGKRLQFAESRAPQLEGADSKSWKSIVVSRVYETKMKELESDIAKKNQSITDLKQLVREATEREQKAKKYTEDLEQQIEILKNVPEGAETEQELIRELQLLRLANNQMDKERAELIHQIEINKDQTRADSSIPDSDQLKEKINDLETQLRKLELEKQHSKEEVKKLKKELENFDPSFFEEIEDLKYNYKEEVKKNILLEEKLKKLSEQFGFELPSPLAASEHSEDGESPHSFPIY

T1 sequence (P47743 34-908): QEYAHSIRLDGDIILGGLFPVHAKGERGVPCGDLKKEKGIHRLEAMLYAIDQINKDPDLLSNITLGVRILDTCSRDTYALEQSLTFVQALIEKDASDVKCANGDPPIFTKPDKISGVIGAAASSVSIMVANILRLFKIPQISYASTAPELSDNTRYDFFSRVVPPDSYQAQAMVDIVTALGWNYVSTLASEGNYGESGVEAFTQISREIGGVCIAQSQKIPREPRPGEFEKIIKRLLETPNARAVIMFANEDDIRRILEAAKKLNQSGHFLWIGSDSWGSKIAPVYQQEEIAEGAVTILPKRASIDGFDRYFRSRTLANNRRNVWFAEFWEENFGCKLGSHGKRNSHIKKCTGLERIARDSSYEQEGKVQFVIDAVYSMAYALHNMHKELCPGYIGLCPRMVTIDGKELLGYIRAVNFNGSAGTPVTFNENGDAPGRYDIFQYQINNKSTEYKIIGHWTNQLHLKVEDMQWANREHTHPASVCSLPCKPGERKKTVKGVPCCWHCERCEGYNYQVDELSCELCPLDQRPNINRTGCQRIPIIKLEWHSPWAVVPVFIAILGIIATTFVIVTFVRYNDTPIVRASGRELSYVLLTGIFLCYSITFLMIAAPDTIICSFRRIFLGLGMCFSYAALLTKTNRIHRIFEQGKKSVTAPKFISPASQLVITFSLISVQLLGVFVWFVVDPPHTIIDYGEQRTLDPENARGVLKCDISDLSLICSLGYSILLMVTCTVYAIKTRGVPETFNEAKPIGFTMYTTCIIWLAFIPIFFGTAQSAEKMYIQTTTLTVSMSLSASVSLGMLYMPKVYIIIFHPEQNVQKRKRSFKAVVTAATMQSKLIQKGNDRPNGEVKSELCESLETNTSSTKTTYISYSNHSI

block of the mGluR8 agonist-evoked [Ca2+]i change ([1]; CPPG 100 μM): can be blocked
Molecule: NC(C(=O)O)(c1ccc(P(=O)(O)O)cc1)C1CC1 (racemic) [CPPG, (RS)-alpha-cyclopropyl-4-phosphonophenylglycine]

Molecule: CC1=C(/C=C/C(C)=C\C=C\C(C)=C\C(=O)O)C(C)(C)CCC1 [9-cis RA, 9-cis-RA]
NRL expression (immunoblot) ([2]; serum-starved Y79 cells): dose-dependent increase in NRL expression

Molecule: C[C@@H]1C[C@@H]([C@H](O)CC2CC(=O)NC(=O)C2)C(=O)[C@@H](C)C1 [CHX, cycloheximide]
effect on RA-mediated NRL induction, added simultaneously with RA ([2]; CHX 20 μg/ml with at RA, serum-starved Y79 cells): blocked NRL induction
effect on NRL expression, added after RA pretreatment ([2]; cells pretreated with RA for 8 or 24 h, then CHX): no detectable effect on NRL expression

Molecule: N[C@H](C(=O)O)c1ccc(C(=O)O)c(C(=O)O)c1 [DCPG, (S)-3,4-dicarboxyphenylglycine]
changes in intracellular calcium ([Ca2+]i) on agonist application [1]: consistently evoked changes in ([Ca^2+]i)

Molecule: CN[C@H](CC(=O)O)C(=O)O [NMDA, N-methyl-D-aspartate]
effect of NMDA receptor agonist on [Ca2+]i [3]: showed no effect

Molecule: C/C(=C\c1ccc(C(=O)O)cc1)c1ccc2c(c1)C(C)(C)CCC2(C)C [TTNPB, 4-(E-2-(5,6,7,8-tetrahydro-5,5,8,8-tetramethyl-2-naphthalenl)-1-propenyl) benzoic acid]
NRL expression (immunoblot) ([2]; serum-starved Y79 cells): mimicked

Molecule: N[C@@H](CCC(=O)O)C(=O)O [glutamate]
changes in intracellular calcium ([Ca2+]i) on agonist application [1]: consistently evoked changes in ([Ca^2+]i)

fold higher level co-immunoprecipitated compared with the WT protein [4]: 50 times
B1: RPGR-ORF15 (retina-enriched RPGR-ORF15 isoform(s)) (protein, mouse, UniProt Q9R0X5-5 1-1305, looked up)
chain: MAESESLVPDTGAVFTFGKTKFAENIPSKFWFKNDIPICLSCGDEHTAIVTGNNKLYMFGSNNWGQLGLGSKAAIIKPTCIKALKPEKVKLAACGRNHTLVSTDTGGVYAAGGNNEGQLGLGDTDDRDTFHQIVFFTPADTIKQLSAGANTSAALTEDGKLFMWGDNSEGQIGLEDKSNVCIPHEVTVGKPISWISCGYYHSAFVTMDGELYTFGEPENGKLGLPNELLMNHRSPQRVLGIPERVIQVACGGGHTVVLTEKVVYAFGLGQFGQLGLGTFLFETSEPKIIERIKDQKICHISCGENHTALMTELGLLYTFGDGRHGKLGLGMENFTNQFFPTLCSNFLRFAVQLIACGGCHMLVFATPRLGTIDEPKFEDVYEPYISTGSFSINDLSPRSSLNRSLSARLRRRERERPPCSASMVGTLPPLEGTSASTSAYFYPSSPPFHLSVNNYPEKSPSESMEPLDSDYFEDKMNKDTETENSSAVDSENFGETNDILNMTHMMTTSSNEKLLDFSPIQKQQNQDTFEKVMESTPCTENEDSYEYEEMSKIKEVTVYKQYLAKGIYMIRPAEILEAFSDEEVGNGLDQVEEPRVFTDGKGLQSKQVGKESDEEIVSEKKTEVMEVADVKKIRESEENSKSDSLFDDLPDKTMNSESEDNKDIAEERRSSEQNMTFDSETELVEEPDSYMECERHSEQDSAEELEQPKLVEYSSEEKDEKDEKDDDEVETENLWYDRNCTEQETENVFRATRFFPKFDLKHDHLSGIPEEQEGPEDSEGNVVVEQVVQAQKENLEFEGDRKEAKAEAPSDVITEKEVSESERESGGEREDRSEGDGDQICEKVSLETEHLQRAQGKQERKKGKDKRARCILDMKEREEDKGWEKGSEGGDKMKRDEGNQEKRKKEMEERDAGDERSEEEEGEEEEPEEGEKEEGGEEEEGTSEDQSREDEGDRQEKEGRREGKGRQEDGREGWKEGEEQEQEEEIEEGEEEEREGEEEGGEEEGEGEGEREEEGEGEEEGEGEEEGEGEEEGEGEEEGEGEEEGEGEEEGEGEEEGEGEEDGEGEEDGEGEEEGEGEEEGEREEDGEGEEDGEGEEEGEGEEEGEGEEEGEGEEEGEGEGEEEGEGEWEGEEEGEGEEEGEGEEEGEGEEEGEGEEEGEGEEEGGEDDEGEELEKKKGDITEEEEEEEEGQEGDEREREEHGSCEDDVEEDKTYDREEGEYKKAIGKVADNESQEDRKQSPKVSKINGSMKYGRHGTYSEKPITNLGKTQPSKMPMESRQLVENGLLGSERFWSDVLPLYLELK

binding result [5]: no binding
B2: nucleophosmin (NPM) (other, mouse, UniProt Q61937 1-292, looked up)
chain: MEDSMDMDMSPLRPQNYLFGCELKADKDYHFKVDNDENEHQLSLRTVSLGAGAKDELHIVEAEAMNYEGSPIKVTLATLKMSVQPTVSLGGFEITPPVVLRLKCGSGPVHISGQHLVAVEEDAESEDEDEEDVKLLGMSGKRSAPGGGNKVPQKKVKLDEDDEDDDEDDEDDEDDDDDDFDEEETEEKVPVKKSVRDTPAKNAQKSNQNGKDLKPSTPRSKGQESFKKQEKTPKTPKGPSSVEDIKAKMQASIEKGGSLPKVEAKFINYVKNCFRMTDQEAIQDLWQWRKSL

binding result [5]: no binding
B3: Nephrocystin-5 (NPHP5) (other, mouse, UniProt Q8BP00 1-598, looked up)
chain: MKPAGTDPRILSLAAEVAKSPEQNVPVILLKLKEIINNTPLGSSELKKVKQDIYCYDLIQYCLLVLSQDSSRIQGGWSTISQLTQILSHCCVGLEPGEDGEEFYKELLPSAAENFLILGRRLQTCFINATKGEEQDKLLHFFQIVTDSLFWLLGGHVQLIQNVLQSDHFLHLLQTDNVQIGASVMTLLQNILQINSGNLLKIEGKALHSILDEILFKLLSTPSPVIRSTATKLLLVLAESHQEILILLRLSACYKGLRSLLNKQETLTEFSRELRQLVDLLTPKIHQEVEEQKLHKAACLIQAYWKGFQTRKRLKKLPSAVIALQRSFRSKRTKMMLELNRQKEEEDLRLKLQLQRQRAMRLSRESRLNMLEIIHPGQVEKYNREMEEKSALTIQKHWRGYRERKNFRQQRPSLTEYKAAVTLQRAVLKFLAKCRKKKKLFASWHGLQELTDARRVELKQQVDDYVKRHPCSQMSEAASRELHAQAQERLQHYFMGRAIEERAQQHREALMAQISTNIEQLMKAPSLKEAEGKEPEQFLSRSRPVAAKAKQAHLTTLKHIQAPWWKKLGEEPGDEVDVPKDELSIDLGMLFIGGTKPP
